Molecular target: AAK1 (amino acids T27-A365) (Homo sapiens (Human), UniProt Q2M2I8)
Experiment: AAK1 pSENs assay
Format: biochemical
Conditions: ratio of AAK1 pSENs activity to GAK pSENs activity
Method: The recombinant proteins were independently expressed in Esherichia coli BL21(DE3) cells cultured in Luria-Bertani (LB) medium until OD600 reached 0.6-0.8, then cooled to 15° C., and supplemented with 0.5 mM isopropyl 1-thio-D-galactopyranoside (IPTG) induce protein expression 16 h. Cells were harvested and resuspended in lysis buffer (50 mM HEPES pH 7.5, 500 mM NaCl, 5 mM imidazole, 5% glycerol, 0.5 mM Tris (2-carboxyethyl) phosphine (TCEP), cOmplete Protease Inhibitor Tablet (Roche)) and lysed by microfluidics high pressure homogenizer (UH-06, Union-Biotech). Proteins were purified using Ni-Affinity chromatography (His FF column, Bestchrom) and eluted stepwise in binding buffer with 20-300 mM imidazole. Removal of the hexahistidine tag was performed at 4° C. overnight using recombinant TEV protease and reacted with BirA to obtain the corresponding biotinylated-AAK1. BIKE or GAK proteins. Further separated in the reverse Strep column (Strep-Tactin® XT, IBA). The Biotin elution sample was collected containing untagged biotinylated protein was then purified by Ion-exchange chromatography (Mono Q 10/100 GL, Cytiva) and Size-exclusion chromatography (HiLoad 16/600 Superdex 200 pg, Cytiva). The pure protein was stored in a storage buffer 50 mM HEPES (pH 7.5), 300 mM NaCl, 5% glycerol at −80° C. Protein were characterized by SDS-PAGE. LC-MS and aSEC.
This example describes one illustrative method for determining the IC50 of the compounds of the present invention against AAK1 (amino acids T27-A365). AAK1 protein was dissolved at 20 nM in 1× enzyme solution (50 mM HEPES pH7.5, 10 mM MgCl2, 1 mM DTT, 1% glycerol, 0.5 mM EGTA, 0.01% Briji35, 0.02% BSA) and 12.5 ul was incubated with 250 nl DMSO or 250 nl compound in DMSO at 25° C. for 15 min. The reaction was started by addition of 12.5 ul of 30 uM AQT0759 (Assayquant, CSKS-AQT0759B) and 70 uM ATP which were diluted in 1× substrate dilution buffer (50 mM HEPES pH7.5, 10 mM MgCl2, 1 mM DTT, 1% glycerol, 0.5 mM EGTA, 0.01% Briji35).

Chain of AAK1 (amino acids T27-A365) (Q2M2I8 27-365): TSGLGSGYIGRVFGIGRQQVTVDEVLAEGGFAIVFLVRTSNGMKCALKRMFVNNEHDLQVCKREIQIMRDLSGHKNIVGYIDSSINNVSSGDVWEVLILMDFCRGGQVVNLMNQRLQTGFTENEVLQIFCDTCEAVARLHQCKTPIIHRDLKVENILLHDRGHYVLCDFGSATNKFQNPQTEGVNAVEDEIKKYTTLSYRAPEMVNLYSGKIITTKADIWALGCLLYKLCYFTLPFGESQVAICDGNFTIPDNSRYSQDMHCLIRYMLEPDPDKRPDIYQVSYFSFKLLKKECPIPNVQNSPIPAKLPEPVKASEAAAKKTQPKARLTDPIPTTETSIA

SMILES	AAK1:GAK pSENs Selectivity
CC1(OC(=O)N2CCN(c3ccn4ncc(-c5ccc(C(N)=O)cc5)c4n3)CC2)COC1 [Compound I-3, (3-methyloxetan-3-yl)-4-[3-(4-carbamoylphenyl)pyrazolo[1,5-a]pyrimidin-5-yl]piperazine-1-carboxylate]	B (B: 0.016-0.075)
CC1(OC(=O)N2CCN(c3ccn4ncc(-c5cccc(C(N)=O)c5)c4n3)CC2)COC1 [Compound I-4, (3-methyloxetan-3-yl)-4-[3-(3-carbamoylphenyl)pyrazolo[1,5-a]pyrimidin-5-yl]piperazine-1-carboxylate]	C (C: 0.076-0.15)
COc1ncccc1-c1cnn2ccc(N3CCN(C(=O)OC4CCNC4)CC3)nc12 (stereo not drawn) [Compound I-5, Pyrrolidin-3-yl4-[3-(2-methoxy-3-pyridyl)pyrazolo[1,5-a]pyrimidin-5-yl]piperazine-1-carboxylate]	B (B: 0.016-0.075)
COc1ncccc1-c1cnn2ccc(N3CCN(C(=O)OC4(C)CCNC4)CC3)nc12 (stereo not drawn) [Compound I-8, (3-Methylpyrrolidin-3-yl)-4-[3-(2-methoxy-3-pyridyl)pyrazolo[1,5-a]pyrimidin-5-yl]piperazine-1-carboxylate]	B (B: 0.016-0.075)
C#CC1(OC(=O)N2CCN(c3ccn4ncc(-c5cccnc5OC)c4n3)CC2)CCNC1 (stereo not drawn) [Compound I-9, (3-Ethynylpyrrolidin-3-yl) 4-[3-(2-methoxy-3-pyridyl)pyrazolo[1,5-a]pyrimidin-5-yl]piperazine-1-carboxylate]	B (B: 0.016-0.075)
CN(CCNc1ccn2ncc(-c3cccnc3OC3CC3)c2n1)C(=O)OC(C)(C)C [Compound I-12, tert-butyl N-[2-[[3-[2-(Cyclopropoxy)-3-pyridyl]pyrazolo[1,5-a]pyrimidin-5-yl]amino]ethyl]-N-methyl-carbamate]	A (A: ≤0.015)
CC1(OC(=O)N2CCN(c3ccn4ncc(-c5cccnc5OC5CC5)c4n3)CC2)CCNC1 (stereo not drawn) [Compound I-13-5, (3-Methylpyrrolidin-3-yl) 4-[3-[2-(cyclopropoxy)-3-pyridyl]pyrazolo [1,5-a]pyrimidin-5-yl]piperazine-1-carboxylate]	B (B: 0.016-0.075)
C[C@@]1(OC(=O)N2CCN(c3ccn4ncc(-c5cccnc5OC5CC5)c4n3)CC2)CCNC1 [Compound I-14, [(3R)-3-Methylpyrrolidin-3-yl]-4-[3-[2-(cyclopropoxy)-3-pyridyl]pyrazolo[1,5-a]pyrimidin-5-yl]piperazine-1-carboxylate]	A (A: ≤0.015)
C#C[C@]1(OC(=O)N2CCN(c3ccn4ncc(-c5cccnc5OC5CC5)c4n3)CC2)CCNC1 [Compound I-15, [(3R)-3-Ethynylpyrrolidin-3-yl]-4-[3-[2-(cyclopropoxy)-3-pyridyl]pyrazolo[1,5-a]pyrimidin-5-yl]piperazine-1-carboxylate]	B (B: 0.016-0.075)
C#C[C@@]1(OC(=O)N2CCN(c3ccn4ncc(-c5cccnc5OC5CC5)c4n3)CC2)CCNC1 [Compound I-16, [(3S)-3-Ethynylpyrrolidin-3-yl]-4-[3-[2-(cyclopropoxy)-3-pyridyl]pyrazolo[1,5-a]pyrimidin-5-yl]piperazine-1-carboxylate]	B (B: 0.016-0.075)
C#CC1(OC(=O)N2CCN(c3ccn4ncc(-c5cccnc5OC5CC5)c4n3)CC2)CCNC1 (stereo not drawn) [Compound I-16-7, 3-ethynylpyrrolidin-3-yl-4-(3-(2-cyclopropoxypyridin-3-yl)pyrazolo[1,5-a]pyrimidin-5-yl)piperazine-1-carboxylate]	B (B: 0.016-0.075)
CC(C)Oc1ncccc1-c1cnn2ccc(N3CCN(C(=O)OC4(C)CCNC4)CC3)nc12 (stereo not drawn) [Compound I-21-5, (3-Methylpyrrolidin-3-yl)-4-[3-(2-isopropoxy-3-pyridyl)pyrazolo[1,5-a]pyrimidin-5-yl]piperazine-1-carboxylate]	B (B: 0.016-0.075)

From patent US20250270222A1, “AP2 ASSOCIATED KINASE 1 INHIBITORS AND USES THEREOF” (Satellos Bioscience Inc., priority 2023, published 2025)
